The source made the active and inactive calls. The rule behind the calls is not given here.
How the values were obtained:
Cacopsylla melanoneura [1] = assay: Insecticidal activity against adult of Cacopsylla melanoneura in apple plant assessed as overwintered female mortality at 187.5 g/ha treated for 14 days measured after 1 day relative to control; assay type: functional
Cacopsylla melanoneura [2] = assay: Insecticidal activity against adult of Cacopsylla melanoneura in apple plant assessed as reduction of progeny per female at 187.5 g/ha treated for 14 days measured after 7 days; assay type: functional, organism-based
Cacopsylla melanoneura [3] = assay: Insecticidal activity against adult of Cacopsylla melanoneura in apple plant assessed as reduction of progeny per female at 187.5 g/ha treated for 7 days measured after 7 days; assay type: functional, organism-based
Cacopsylla melanoneura [4] = assay: Insecticidal activity against young stage of Cacopsylla melanoneura in apple plant assessed as mortality at 187.5 g/ha treated for 1 hr measured after 7 days relative to control; assay type: functional
Cacopsylla melanoneura [5] = assay: Insecticidal activity against adult of Cacopsylla melanoneura in apple plant assessed as overwintered female mortality at 187.5 g/ha treated for 7 days measured after 1 day relative to control; assay type: functional
Cacopsylla melanoneura [6] = assay: Insecticidal activity against adult of Cacopsylla melanoneura in apple plant assessed as overwintered female mortality at 187.5 g/ha treated for 1 hr measured after 1 day relative to control; assay type: functional
Cacopsylla melanoneura [7] = assay: Insecticidal activity against adult of Cacopsylla melanoneura in apple plant assessed as overwintered female mortality at 187.5 g/ha treated for 7 days measured after 3 days relative to control; assay type: functional
Cacopsylla melanoneura [8] = assay: Insecticidal activity against adult of Cacopsylla melanoneura in apple plant assessed as overwintered female mortality at 187.5 g/ha treated for 14 days measured after 3 days relative to control; assay type: functional
Cacopsylla melanoneura [9] = assay: Insecticidal activity against young stage of Cacopsylla melanoneura in apple plant assessed as mortality at 187.5 g/ha treated for 7 days measured after 7 days relative to control; assay type: functional
Cacopsylla melanoneura [10] = assay: Insecticidal activity against adult of Cacopsylla melanoneura in apple plant assessed as reduction of progeny per female at 187.5 g/ha treated for 1 hr measured after 7 days; assay type: functional, organism-based
Cacopsylla melanoneura [11] = assay: Insecticidal activity against young stage of Cacopsylla melanoneura in apple plant assessed as mortality at 187.5 g/ha treated for 14 days measured after 7 days relative to control; assay type: functional
Cacopsylla melanoneura [12] = assay: Insecticidal activity against adult of Cacopsylla melanoneura in apple plant assessed as overwintered female mortality at 187.5 g/ha treated for 1 hr measured after 3 days relative to control; assay type: functional
Cacopsylla melanoneura [13] = assay: Insecticidal activity against adult of Cacopsylla melanoneura in apple plant assessed as overwintered female mortality at 16.6 g/ha treated for 14 days measured after 3 days relative to control; assay type: functional
Cacopsylla melanoneura [14] = assay: Insecticidal activity against young stage of Cacopsylla melanoneura in apple plant assessed as mortality at 16.6 g/ha treated for 1 hr measured after 7 days relative to control; assay type: functional
Cacopsylla melanoneura [15] = assay: Insecticidal activity against young stage of Cacopsylla melanoneura in apple plant assessed as mortality at 16.6 g/ha treated for 14 days measured after 7 days relative to control; assay type: functional
Cacopsylla melanoneura [16] = assay: Insecticidal activity against adult of Cacopsylla melanoneura in apple plant assessed as overwintered female mortality at 16.6 g/ha treated for 1 hr measured after 3 days relative to control; assay type: functional
Cacopsylla melanoneura [17] = assay: Insecticidal activity against adult of Cacopsylla melanoneura in apple plant assessed as overwintered female mortality at 16.6 g/ha treated for 7 days measured after 3 days relative to control; assay type: functional
Cacopsylla melanoneura [18] = assay: Insecticidal activity against adult of Cacopsylla melanoneura in apple plant assessed as overwintered female mortality at 16.6 g/ha treated for 14 days measured after 1 day relative to control; assay type: functional
Cacopsylla melanoneura [19] = assay: Insecticidal activity against adult of Cacopsylla melanoneura in apple plant assessed as overwintered female mortality at 16.6 g/ha treated for 7 days measured after 1 day relative to control; assay type: functional
Cacopsylla melanoneura [20] = assay: Insecticidal activity against young stage of Cacopsylla melanoneura in apple plant assessed as mortality at 16.6 g/ha treated for 7 days measured after 7 days relative to control; assay type: functional
Cacopsylla melanoneura [21] = assay: Insecticidal activity against adult of Cacopsylla melanoneura in apple plant assessed as overwintered female mortality at 16.6 g/ha treated for 1 hr measured after 1 day relative to control; assay type: functional
Cacopsylla melanoneura [22] = assay: Insecticidal activity against adult of Cacopsylla melanoneura in apple plant assessed as reduction of progeny per female at 16.6 g/ha treated for 1 hr measured after 7 days; assay type: functional, organism-based
Cacopsylla melanoneura [23] = assay: Insecticidal activity against adult of Cacopsylla melanoneura in apple plant assessed as reduction of progeny per female at 16.6 g/ha treated for 7 days measured after 7 days; assay type: functional, organism-based
Cacopsylla melanoneura [24] = assay: Insecticidal activity against adult of Cacopsylla melanoneura in apple plant assessed as reduction of progeny per female at 16.6 g/ha treated for 14 days measured after 7 days; assay type: functional, organism-based

Which results are given for `CCOC(=O)NCCOc1ccc(Oc2ccccc2)cc1` [PHENOXYCARB]?
Activity (Cacopsylla melanoneura [1]): 23.3%; Activity (Cacopsylla melanoneura [2]): Active; Activity (Cacopsylla melanoneura [3]): Active; Activity (Cacopsylla melanoneura [4]): 93.3%; Activity (Cacopsylla melanoneura [5]): 40%; Activity (Cacopsylla melanoneura [6]): 3.3%; Activity (Cacopsylla melanoneura [7]): 60%; Activity (Cacopsylla melanoneura [8]): 53.3%; Activity (Cacopsylla melanoneura [9]): 91.7%; Activity (Cacopsylla melanoneura [10]): Active; Activity (Cacopsylla melanoneura [11]): 100%; Activity (Cacopsylla melanoneura [12]): 16.7%

`CC[C@H](C)[C@H]1O[C@]2(C=C[C@@H]1C)C[C@@H]1C[C@@H](C/C=C(\C)[C@@H](O[C@H]3C[C@H](OC)[C@@H](O[C@H]4C[C@H](OC)[C@@H](O)[C@H](C)O4)[C@H](C)O3)[C@@H](C)/C=C/C=C3\CO[C@@H]4[C@H](O)C(C)=C[C@@H](C(=O)O1)[C@]34O)O2.CO[C@H]1C[C@H](O[C@H]2[C@H](C)O[C@@H](O[C@@H]3/C(C)=C/C[C@@H]4C[C@@H](C[C@]5(C=C[C@H](C)[C@@H](C(C)C)O5)O4)OC(=O)[C@@H]4C=C(C)[C@@H](O)[C@H]5OC/C(=C\C=C\[C@@H]3C)[C@]54O)C[C@@H]2OC)O[C@@H](C)[C@@H]1O` [ABAMECTIN] was tested. Which Activity (Cacopsylla melanoneura [13]) did it give?
The Activity was 60%.

What about the Activity (Cacopsylla melanoneura [14]) of the same molecule?
Its Activity is 75%.

And the Activity (Cacopsylla melanoneura [15])?
The Activity was 71.7%.

What about the Activity (Cacopsylla melanoneura [16]) of the same molecule?
Its Activity is 36.7%.

What about the Activity (Cacopsylla melanoneura [17]) of the same molecule?
Its Activity is 30%.

And the Activity (Cacopsylla melanoneura [18])?
Its Activity is 43.3%.

And the Activity (Cacopsylla melanoneura [19])?
Its Activity is 16.7%.

And the Activity (Cacopsylla melanoneura [20])?
Its Activity is 95%.

What about the Activity (Cacopsylla melanoneura [21]) of the same molecule?
Its Activity is 33.3%.

What about the Activity (Cacopsylla melanoneura [22]) of the same molecule?
Its Activity is “Active”.

And the Activity (Cacopsylla melanoneura [23])?
The Activity was “Active”.

What about the Activity (Cacopsylla melanoneura [24]) of the same molecule?
Its Activity is “Active”.

Reference: ChEMBL document CHEMBL3044636, “Effectiveness of five insecticides for the control of adults and young stages of Cacopsylla melanoneura (Förster) (Hemiptera: Psyllidae) in a semi-field trial” (2010)
